From patent US20100061994A1, “MEDICAL USES OF 39-DESMETHOXYRAPAMYCIN AND ANALOGUES THEREOF” (priority 2005, published 2010) come the findings set out here.

Series [1] in a line: Human Liver Microsomal (HLM) stability assay. The class given is in vitro ADME. On the procedure:
Liver homogenates provide a measure of a compounds inherent vulnerability to Phase I (oxidative) enzymes, including CYP450s (e.g. CYP2C8, CYP2D6, CYP1A, CYP3A4, CYP2E1), esterases, amidases and flavin monooxygenases (FMOs).
The half life (T½) of test compounds was determined, on exposure to Human Liver Microsomes, by monitoring their disappearance over time by LC-MS. Compounds at 0.001 mM were incubated at for 40 min at 37° C., 0.1 M Tris-HCl, pH 7.4 with human microsomal sub-cellular fraction of liver at 0.25 mg/mL protein and saturating levels of NADPH as co-factor. At timed intervals, acetonitrile was added to test samples to precipitate protein and stop metabolism. Samples were centrifuged and analysed for parent compound using analytical Method A (see Materials & Methods).
(In general: Liver microsomes are a subcellular fraction often used to study metabolism.)

For series [2], the system named is panel of 12 human tumour cell lines. As to the kind of experiment: Monolayer proliferation assay Protocol 1, mean across the cell lines tested. The class given is cell-based. As for the experimental part: (§1) In vitro evaluation of compounds for anticancer activity in a panel of 12 human tumour cell lines in a monolayer proliferation assay were carried out at the Oncotest Testing Facility, Institute for Experimental Oncology, Oncotest GmbH, Freiburg.
(§2) A modified propidium iodide assay was used to assess the effects of the test compound(s) on the growth of twelve human tumor cell lines (Dengler et al, 1995).
(§3) Briefly, cells were harvested from exponential phase cultures by trypsinization, counted and plated in 96 well flat-bottomed microtitre plates at a cell density dependent on the cell line (5-10.000 viable cells/well). […] Each concentration was plated in triplicate. 39-Desmethoxyrapamycin was applied in two concentrations (0.001 mM and 0.01 mM).
(§4) Growth inhibition was expressed as treated/control×100 (% TIC). For active compounds, IC50 & IC70 values were estimated by plotting compound concentration versus cell viability.
(§5) In vitro evaluation of 39-desmethoxyrapamycin for anticancer activity in a panel of 12 human tumour cell lines in a monolayer proliferation assay was carried out as described as Protocol 1 in the general methods above using a modified propidium iodide assay.

For a further series, the system named is MDA231. As to the kind of experiment: Monolayer proliferation assay Protocol 1 (propidium iodide). The class given is cell-based, human. The following applies: 4 days, mean of duplicate experiments. On the procedure:
as §1, §2, §3, §4, §5

The next series concerns SF268. The description is as above. Conditions: 4 days, mean of duplicate experiments. The class given is cell-based, human. On the procedure:
as §1, §2, §3, §4, §5

The subject of another series is 394NL. The description is as above. The following applies: 4 days, mean of duplicate experiments. The class given is cell-based, human. As for the experimental part: as §1, §2, §3, §4, §5
The test system of another series is OVCAR3. The series is described as above. The class given is cell-based, human. Conditions: 4 days, mean of duplicate experiments. As for the experimental part: as §1, §2, §3, §4, §5
The test system of the next series is DU145. Described as above. The class given is cell-based, human. Conditions: 4 days, mean of duplicate experiments. As for the experimental part: as §1, §2, §3, §4, §5
In a further series the test system is A498. Kind of series: Monolayer assay Protocol 2 (SRB), high MDR-expressing cell lines. The class given is cell-based, human. The following applies: Renal A498, high MDR-expressing, 48 h. On the procedure:
(§6) The human tumor cell lines of the National Cancer Institute (NCI) cancer screening panel were grown in RPMI 1640 medium containing 5% fetal bovine serum and 2 mM L-glutamine (Boyd and Paull, 1995). Cells were inoculated into 96 well microtiter plates in 0.1 mL at plating densities ranging from 5,000 to 40,000 cells/well depending on the doubling time of individual cell lines. After cell inoculation, the microtiter plates were incubated at 37° C., 5% CO2, 95% air and 100% relative humidity for 24 h prior to addition of experimental drugs.
(§7) After 24 h, two plates of each cell line were fixed in situ with trichloroacetic acid (TCA), to represent a measurement of the cell population for each cell line at the time of drug addition (Tz). Experimental drugs were solubilized in dimethyl sulfoxide at 400-fold the desired final maximum test concentration and stored frozen prior to use. At the time of drug addition, an aliquot of frozen concentrate was thawed and diluted to twice the desired final maximum test concentration with complete medium containing 0.05 mg/mL gentamicin. Additional four, 10-fold or ½ log serial dilutions were made to provide a total of five drug concentrations plus control. Aliquots of 0.1 mL of these different drug dilutions were added to the appropriate microtiter wells already containing 0.1 mL of medium, resulting in the required final drug concentrations.
(§8) Following drug addition, the plates were incubated for an additional 48 h at 37° C., 5% CO2, 95% air, and 100% relative humidity. For adherent cells, the assay was terminated by the addition of cold TCA. Cells were fixed in situ by the gentle addition of 0.05 mL of cold 50% (w/v) TCA (final concentration, 10% TCA) and incubated for 60 minutes at 4° C. The supernatant was discarded, and the plates were washed five times with tap water and air dried. Sulforhodamine B (SRB) solution (0.1 mL) at 0.4% (w/v) in 1% acetic acid was added to each well, and plates were incubated for 10 minutes at room temperature. After staining, unbound dye was removed by washing five times with 1% acetic acid and the plates were air dried. Bound stain was subsequently solubilized with 10 mM trizma base, and the absorbance was read on an automated plate reader at a wavelength of 515 nm. […] Using the seven absorbance measurements [time zero, (Tz), control growth, (C), and test growth in the presence of drug at the five concentration levels (Ti)], the percentage growth was calculated at each of the drug concentrations levels. Percentage growth inhibition was calculated as:
(§9) Three dose response parameters were calculated for each experimental agent. […] The drug concentration resulting in total growth inhibition (TGI) was calculated from Ti=Tz. […]

The test system of the next series is SF295. The series is described as above. The class given is cell-based, human. The following applies: CNS SF295, high MDR-expressing, 48 h. On the procedure: as §6, §7, §8, §9

One may read the IC50 as the concentration that inhibits the measured activity by half. Read a low IC50 as higher potency. What is called GI50 is the concentration at which growth is held to half of that of the control.

Molecules are shown by their SMILES. Read-outs that look alike come from different tables or passages of the source.

`COC1CC2CCC(C)C(O)(O2)C(=O)C(=O)N2CCCCC2C(=O)OC(C(C)CC2CCC(O)CC2)CC(=O)C(C)C=C(C)C(O)C(OC)C(=O)C(C)CC(C)C=CC=CC=C1C` (stereo not shown) [39-desmethoxyrapamycin]: the “metabolic stability compared to rapamycin” value in series [1] was “increased metabolic stability”. In series [1] (0.001 mM, 0.25 mg/mL protein, NADPH, 37° C.), the “HLM stability: T½ min” value is reported as 59 min. This molecule also gave an IC50 in series [2] of 3.25 µM. Besides, the “Mean IC70” value in [2] amounted to 6.95 µM. The “Test/Control (%) at drug concentration” value turned out to be 68% in the series with MDA231 (MDA231, 1 μM); 37.5% in the series with MDA231 (MDA231, 10 μM); 57.5% in the series with SF268 (SF268, 1 μM); 23% in the series on SF268 (SF268, 10 μM); 48% in the series with 394NL (1 μM); 40.5% in the series on 394NL (10 μM). For the same molecule, the “Test/Control (%) at drug concentration” value in the series on OVCAR3 (OVCAR3, 1 μM) is 77.5%; in the series with OVCAR3 (OVCAR3, 10 μM) it was 62%; in the series on DU145 (DU145, 1 μM), 65.5%; in the series with DU145 (DU145, 10 μM), 44.5%. The results for the “Log GI50” value in the series with A498 and with SF295 were −7.07 and −5.85, respectively.
As to `CO[C@H]1C[C@@H]2CC[C@@H](C)[C@@](O)(O2)C(=O)C(=O)N2CCCC[C@H]2C(=O)O[C@H]([C@H](C)C[C@@H]2CC[C@@H](O)[C@H](OC)C2)CC(=O)[C@H](C)/C=C(\C)[C@@H](O)[C@@H](OC)C(=O)[C@H](C)C[C@H](C)/C=C/C=C/C=C/1C` [Rapamycin], the half-life at 0.001 mM in [1] (human, liver microsomes, pH 7.4, 0.001 mM, 0.25 mg/mL protein, NADPH, 37° C., read-out: HLM stability: T½ min) was determined as 40 min. The “Mean IC70” value in series [2] came to 9.1 µM. The IC50 in [2] (Homo sapiens) was determined as 3.5 µM. Besides, the “Test/Control (%) at drug concentration” value was 67% in the series with MDA231 (MDA231, 1 μM); 63.5% in the series on MDA231 (MDA231, 10 μM); 53.5% in the series with SF268 (SF268, 1 μM); 46% in the series on SF268 (SF268, 10 μM); 45% in the series with 394NL (1 μM); 44% in the series on 394NL (10 μM). Further, the “Test/Control (%) at drug concentration” value with OVCAR3 (OVCAR3, 1 μM) worked out at 69%; in the series with OVCAR3 (OVCAR3, 10 μM) it was 69.5%; with DU145 (DU145, 1 μM) it was 50.5%; in the series with DU145 (DU145, 10 μM), 54%. Further, the GI50 is 0.251 µM with A498 (Homo sapiens) and 0.1 µM with SF295 (Homo sapiens, SF-295).
